{"source": "patent EP0588317A1", "about": "(priority 1992, dated 1994)", "key": {"[1]": {"test": "solubility in soybean oil", "format": "physicochemical", "text": "The oil phase component used for preparing fat emulsions (or lipid emulsions) may be any of those conventionally used for preparing fat emulsions (or lipid emulsions), including vegetable oils such as soybean oil, cottonseed oil, synthetic triglycerides such as Panasate 800, Panasate 810 (trade name; manufactured by Nippon Yushi), squalene, eicosapentaenoic acid, azone, and the like. For preparing fat emulsions (or lipid emulsions), high solubility in these oil components is required for substance to be fat-emulsified (or lipid-emulsified). The compound of the present invention has a high solubility in these oil components, for example, 300 mg/ml or more in soybean oil at 40°C. The fat emulsions (or lipid emulsions) can be prepared by dissolving the compound of the present invention in soybean oil, Panasate, etc., adding lecithin to the solution, crude-emulsifying the mixture with a homomixer, etc., and then fine-emulsifying with a nanomizer under high pressure."}, "colon 26 cells": {"system": "colon 26 cells", "test": "anti-tumor activity of fat emulsion given intravenously to mice inoculated with colon 26 cells", "format": "in vivo", "details": "fat emulsions, 14 days, dose per day 50 mg/kg"}, "[2]": {"system": "established cell line derived from mice", "details": "at the same molar concentration, in vitro, versus 5-fluorouracil; cited from earlier work"}, "[3]": {"details": "versus 5-fluorouracil; cited from earlier work"}}, "note": "Like-named read-outs stand apart in the source and are kept apart here."}
{"smiles": "CCCCC/C=C\\C/C=C\\CCCCCCCC(=O)OCn1c(=O)c(F)cn([C@H]2C[C@H](OC(C)=O)[C@@H](COC(C)=O)O2)c1=O", "note": "[Example 3, 3',5'-O-diacetyl-3-linolyloxymethyl-2'-deoxy-5-fluorouridine]", "values": [{"measurement": "solubility", "setting": "[1]; soybean oil, 40 °C, oil or lipid; read-out: solubility of this compound in soybean oil", "result": "> 300", "unit": "mg/mL"}]}
{"smiles": "CCCCCCC(=O)OCn1c(=O)c(F)cn([C@H]2C[C@H](OC(=O)CCC)[C@@H](COC(=O)CCC)O2)c1=O", "note": "[Example 4]", "values": [{"measurement": "solubility", "setting": "[1]; 40 °C, oil or lipid; soybean oil; read-out: solubility of this compound in soybean oil", "result": "> 300", "unit": "mg/mL"}, {"measurement": "growth inhibiting activity", "setting": "colon 26 cells; male mice inoculated with colon 26 cells in the inguinal region", "result": "more than 90%"}, {"measurement": "body weight", "setting": "colon 26 cells; male mice inoculated with colon 26 cells", "result": "without decrease of body weight"}]}
{"smiles": "CCCCC/C=C\\C/C=C\\CCCCCCCC(=O)OCn1c(=O)c(F)cn([C@H]2C[C@H](OC(=O)Oc3ccccc3)[C@@H](COC(=O)Oc3ccccc3)O2)c1=O", "note": "[Example 15, 3',5'-O-diphenoxycarbonyl-3-linolyloxymethyl-2'-deoxy-5-fluorouridine]", "values": [{"measurement": "solubility of this compound in soybean", "setting": "[1]", "result": 150, "unit": "mg/0.5 ml"}]}
{"smiles": "CCCCC/C=C\\C/C=C\\CCCCCCCC(=O)OCn1c(=O)c(F)cn([C@H]2C[C@H](OC(=O)Oc3ccc(OC)cc3)[C@@H](COC(=O)Oc3ccc(OC)cc3)O2)c1=O", "note": "[Example 16, 3',5'-O-di(4-methoxyphenoxy-carbonyl)-3-linolyloxymethyl-2'-deoxy-5-fluorouridine]", "values": [{"measurement": "solubility of this compound in soybean", "setting": "[1]", "result": 150, "unit": "mg/0.5 ml"}]}
{"smiles": "CCCCC/C=C\\C/C=C\\CCCCCCCC(=O)OCn1c(=O)c(F)cn([C@@H]2O[C@H](COC(=O)CCC)[C@@H](OC(=O)CCC)[C@H]2OC(=O)CCC)c1=O", "note": "[Example 19, 2',3',5'-O-tri-n-butyryl-3-linolyloxymethyl-5-fluorouridine]", "values": [{"measurement": "solubility of this compound in soybean oil", "setting": "[1]", "result": "> 300", "unit": "mg/soybean oil 1 ml"}]}
{"smiles": "CCCCCCC(=O)OCn1c(=O)c(F)cn([C@@H]2O[C@H](COC(=O)CCC)[C@@H](OC(=O)CCC)[C@H]2OC(=O)CCC)c1=O", "note": "[Example 20, 2',3',5'-O-tri-n-butyryl-3-n-heptanoyloxymethyl-5-fluorouridine]", "values": [{"measurement": "solubility of this compound in soybean oil", "setting": "[1]", "result": "> 300", "unit": "mg/soybean oil 1 ml"}]}
{"smiles": "O=c1[nH]c(=O)n([C@H]2C[C@H](O)[C@@H](CO)O2)cc1F", "note": "[FdUrd, 2'-Deoxy-5-fluorouridine]", "values": [{"measurement": "cancer inhibitory activity relative to 5-fluorouracil", "setting": "[2]", "result": "more than 100 times"}, {"measurement": "in vivo advantage over 5-fluorouracil", "setting": "[3]", "result": "no advantage over 5-fluorouracil"}]}
